According to patent US9120787B2, “HIV replication inhibitors” (priority 2011, dated 2015):
Read-outs that look alike come from different tables or passages of the source.

Assays:
[1] = system: HIV-1Ba-L; test: Inhibition of virus replication in MAGI-CCR5 cells (β-galactosidase reporter); type: cell-based
Description: (§1) The anti-viral activity of dihydropyrimidines was shown by inhibition of virus replication in MAGI-CCR5 cells. MAGI-CCR5 cells are derived from HeLa-CD4-LTR-β-galactosidase cells. The cells have been engineered to express high levels of CD4 and CCR5 and contain one copy of the HIV-1 LTR promoter driving expression of the β-galactosidase gene upon HIV-1 Tat transactivation. On the day preceding the assay, the cells were plated at 1.0×10^4 cells per well and maintained at 37° C. and 5% CO2 in a humidified incubator. Total cell count and viability was visually assessed using a hemacytometer and trypan blue exclusion.
Compounds were evaluated at six concentrations (triplicate wells/concentration). On the day of assay setup, compound dilutions were prepared at two-times (2×) the final concentrations. Media was decanted and wells were replenished with 50 μl of 2× compounds, followed by the addition of 50 μl of diluted virus. Identical uninfected assays were prepared for parallel cytotoxicity testing.
Evaluation of Dihydropyrimidines vs. HIV-1Ba-L in MAGI-CCR5 Cells

[2] = Cytotoxicity by MTS staining in uninfected MAGI-CCR5 cells; type: cell-based; conditions: human, read-out: TC50
Description: as §1, with “exclusion. Compounds were evaluated at six concentrations (triplicate wells/concentration). On the day of assay setup, compound dilutions were prepared at two-times (2×) the final concentrations. Media was decanted and wells were replenished with 50 μl of 2× compounds, followed by the addition of 50 μl of diluted virus. Identical uninfected assays were prepared for parallel cytotoxicity testing.” for “exclusion.”

[3] = system: HIV-1Ba-L; test: HIV-1Ba-L replication in PBMCs (supernatant RT end-point)
Description: Evaluation of Dihydropyrimidines vs. HIV-1Ba-L in Peripheral Blood Mononuclear Cells (PBMCs)
Cultures of pooled phytohemagglutinin stimulated peripheral blood mononuclear cells (PBMC) were seeded into a 96-well plate at plating density of 5×10^4 cells/well. Compounds were serially diluted into media in ½-log increments using a high test of […] and […] of each concentration (nine total concentrations). Cells were infected with HIV strains HIV-1Ba-L and NL4-3 at an MOI=0.1. The PBMCs were cultured for seven days in an humidified incubator maintained at 37° C., 5% CO2 atmosphere. At the assay end-point, the supernatant was collected and analyzed for reverse transcriptase activity. For the RT assay, tritiated thymidine triphosphate (3H-TTP, 80 Ci/mmol) was diluted 1:1 dH2O:Ethanol at 1 mCi/ml. Poly rA:oligo dT template:primer was prepared as a stock solution by combining 150 μl poly rA (20 mg/ml) with 0.5 mL oligo dT (20 units/ml) and 5.35 ml sterile dH2O followed by aliquoting (1.0 ml) and storage at −20° C. The RT reaction buffer contained of 125 ml 1.0 M EGTA, 125 ml dH2O, 125 ml 20% Triton X100, 50 ml 1.0 M Tris (pH 7.4), 50 ml 1.0 M DTT, and 40 ml 1.0 M MgCl2. The final reaction mixture was prepared by combining 1 part 3H-TTP, 4 parts dH2O, 2.5 parts poly rA:oligo dT stock and 2.5 parts reaction buffer. To each well, ten microliters of the reaction mixture and 15 μl of virus containing supernatant were added. The plates were incubated at 37° C. for 60 minutes. Following incubation, the reaction volume was spotted onto DE81 filter-mats, washed 5 times for 5 minutes each in a 5% sodium phosphate buffer or 2×SSC. […] were washed 2 times for 1 minute each in distilled water, 2 times for 1 minute each in 70% ethanol, and then dried. Incorporated radioactivity (counts per minute, CPM) was quantified using standard liquid scintillation techniques.

[4] = Cytotoxicity by MTS staining in PBMCs; type: cell-based; conditions: human, peripheral blood mononuclear cells (PBMC), read-out: TC50
Description: Cytotoxicity was assessed by MTS staining. At assay end-point, PBMC were stained with the addition of […] of the soluble tetrazolium-based dye MTS to determine cell viability and quantify compound toxicity. The plates were incubated 4 to 6 hrs at 37° C. Following incubation, the activity was assessed by reading absorbance values at 490/650 nm.

[5] = system: HIV-1 K103N, Y181C (A17); test: HIV-1 K103N, Y181C (A17) replication in PBMCs; type: cell-based
Text: In another embodiment of the present disclosure compounds are provided which inhibit the replication of HIV strains resistant to NNRTIs. Compounds in this disclosure inhibit, A17, an HIV-1 virus with mutations in the RT non-nucleoside binding pocket, K103N and Y181C, in a dose-dependent susceptibility testing manner.
The asparagine variation at residue 103 and the cysteine variation at residue 181 are known to inhibit the activity of the NNRTI's.
Evaluation Dihydropyrimidines vs. HIV-1Ba-L and HIV-1 K103N, Y181C in PBMCs

[6] = Human immunodeficiency virus 1, HIV-1Ba-L in MAGI-CCR5 cells, 48 hours, β-galactosidase reporter expression, read-out: IC50
[7] = Human immunodeficiency virus 1, PBMC, 168 h

SMILES	TI (TC50/IC50) ([1]; HIV-1Ba-L in MAGI-CCR5 cells)	IC50 [1, 6] [µM]	CC50 at 48 h [2] [µM]	TI (TC50/IC50) ([3]; HIV-1Ba-L in PBMCs)	IC50 ([3]; Human immunodeficiency virus 1, BAL, PBMC) [µM]	IC50 [3, 7] [µM]	TI (TC50/IC50) ([3]; Virus Ba-L in PBMCs (Ba-L vs A17 comparison))	CC50 at 7 days ([4]; A17 line of the table) [µM]	CC50 at 7 days ([4]; Ba-L line of the table) [µM]	CC50 at 7 days ([4]; MTS staining) [µM]	IC50 ([5]; Human immunodeficiency virus 1, PBMC) [µM]	TI (TC50/IC50) ([5]; Virus A17 (K103N, Y181C) in PBMCs)	IC50 ([1]; Human immunodeficiency virus 1, MAGI-CCR5, 48 h) [µM]
CC1=C(c2nc(-c3ccc(C#N)cc3)cs2)C(c2cc3ccccc3[nH]2)NC(=O)N1 (stereo not drawn) [Example 10]	C (C < 50.0 to 10.0)	1 to 5	< 50	C (C < 50.0-10.0)	1 to 5	1 to 5	B (B < 100.0-50.0)	≥ 100	≥ 100	50 to 100	5 to 100	D (D < 10.0)	
CC1=C(c2nc(-c3cccc(O)c3)cs2)C(c2cccc(O)c2)NC(=O)N1 (stereo not drawn) [Example 38]	D (D < 10.0)	5 to 100	50 to 100	D (D < 10.0)		5 to 100				50 to 100			
COc1ccc(-c2csc(C3=C(C)NC(=O)NC3c3cc(Br)cs3)n2)cc1 (stereo not drawn) [Example 40]	D (D < 10.0)	> 100	≥ 100	D (D < 10.0)		5 to 100				≥ 100			
COc1ccc(-c2csc(C3=C(C)NC(=O)NC3c3ccc(-c4ccccc4)cc3)n2)cc1 (stereo not drawn) [Example 43]	D (D < 10.0)	> 100	≥ 100	D (D < 10.0)		5 to 100				≥ 100			
CC1=C(c2nc(-c3ccc(F)cc3)cs2)C(c2cccc(O)c2)NC(=O)N1 (stereo not drawn) [Example 44]	C (C < 50.0 to 10.0)	1 to 5	50 to 100	D (D < 10.0)		5 to 100				50 to 100			
CC1=C(c2nc(-c3ccc(C#N)cc3)cs2)C(c2ccc(O)cc2)NC(=O)N1 (stereo not drawn) [Example 48]	A (A = TI (TC50/IC50) ≧ 100.0)	< 1	≥ 100	A (A = TI (TC50/IC50) ≧100.0)		< 1				≥ 100			
CC1=C(c2nc(-c3ccc(C#N)cc3)cs2)C(c2cccc(F)c2)NC(=O)N1 (stereo not drawn) [Example 50]	C (C < 50.0 to 10.0)	1 to 5	≥ 100	A (A = TI (TC50/IC50) ≧100.0)		< 1				≥ 100			
CC1=C(c2nc(-c3ccc(C#N)cc3)cs2)C(c2ccc(Oc3ccccc3)cc2)NC(=O)N1 (stereo not drawn) [Example 59]	A (A = TI (TC50/IC50) ≧ 100.0)	< 1	≥ 100	A (A = TI (TC50/IC50) ≧100.0)		< 1				≥ 100			
COc1ccc(C2NC(=O)NC(C)=C2c2nc(-c3ccc(C#N)cc3)cs2)cc1 (stereo not drawn) [Example 64]	B (B < 100.0-50.0)	< 1	< 50	A (A = TI (TC50/IC50) ≧100.0)		< 1				≥ 100			
CC1=C(c2nc(-c3cccc(C#N)c3)cs2)C(c2cccc(O)c2)NC(=O)N1C (stereo not drawn) [Example 68]	D (D < 10.0)	5 to 100	≥ 100	D (D < 10.0)		5 to 100				50 to 100			
CC1=C(c2nc(-c3ccc(C#N)cc3)cs2)C(c2cccc(O)c2)NC(=O)N1C (stereo not drawn) [Example 69]	B (B < 100.0-50.0)	1 to 5	≥ 100	C (C < 50.0-10.0)		1 to 5				≥ 100			
CC1=C(c2nc(-c3ccc(C#N)cc3)cs2)C(c2cccc(C(F)(F)F)c2)NC(=O)N1 (stereo not drawn) [Example 71]	B (B < 100.0-50.0)	1 to 5	≥ 100	C (C < 50.0-10.0)		5 to 100				≥ 100			
CC1=C(c2nc(-c3ccc(Cl)cc3)cs2)C(c2cccc(O)c2)NC(=O)N1 (stereo not drawn) [Example 74]	C (C < 50.0 to 10.0)	1 to 5	50 to 100	C (C < 50.0-10.0)		1 to 5				50 to 100			
CC1=C(c2nc(-c3ccc(C#N)cc3)cs2)C(c2cc(O)cc(O)c2)NC(=O)N1 (stereo not drawn) [Example 80]	D (D < 10.0)	> 100	≥ 100	B (B < 100.0-50.0)		1 to 5				≥ 100			
CC1=C(c2nc(-c3ccc(C#N)cc3)cs2)C(c2ccc(OCc3ccccc3)c(Cl)c2)NC(=O)N1 (stereo not drawn) [Example 81]	B (B < 100.0-50.0)	1 to 5	≥ 100	A (A = TI (TC50/IC50) ≧100.0)		< 1				≥ 100			
CC1=C(c2nc(-c3ccc(C#N)cc3)cs2)C(c2ccc(Oc3ccccc3)nc2)NC(=O)N1 (stereo not drawn) [Example 90]	A (A = TI (TC50/IC50) ≧ 100.0)	< 1	≥ 100	C (C < 50.0-10.0)		1 to 5				50 to 100			
CC1=C(c2nc(-c3ccc(C#N)cc3)cs2)C(c2ccc(N(C)C)nc2)NC(=O)N1 (stereo not drawn) [Example 91]	A (A = TI (TC50/IC50) ≧ 100.0)	< 1	≥ 100	B (B < 100.0-50.0)		1 to 5				≥ 100			
CC1=C(c2nc(-c3ccc(C#N)cc3)cs2)C(c2ccc(Cl)nc2Cl)NC(=O)N1 (stereo not drawn) [Example 92]	A (A = TI (TC50/IC50) ≧ 100.0)	< 1	≥ 100	C (C < 50.0-10.0)		1 to 5				50 to 100			
Cc1nnc(C(=O)NC(C)(C)c2nc(C(=O)NCc3ccc(F)cc3)c(O)c(=O)n2C)o1 [Raltegravir, reference compound]	>3.85		> 100	>371.0		0.003				> 1			0.026
